Assay results taken from patent US9815792B2, “Method for producing carboxamides” (BAYER CROPSCIENCE AKTIENGESELLSCHAFT, priority 2014, dated 2017).
Where two headings read alike, the source gives them in different places.

Columns and labels:
Cooperia curticei = Cooperia curticei test (COOPCU); assay type: in vivo; settings: 20 ppm, nematode larvae, after 5 days
Experimental: Cooperia curticei test (COOPCU)
(§1) Solvent: dimethyl sulphoxide
(§2) To produce a suitable preparation of active compound, 10 mg of active compound are mixed with 0.5 ml of dimethyl sulphoxide and the concentrate is diluted with “Ringer's solution” to the desired concentration.
Vessels containing the active compound preparation of the desired concentration are populated with about 40 nematode larvae (Cooperia curticei).
(§3) After 5 days, the kill in % is determined. 100% means that all the larvae has been killed; 0% means that none of the larvae has been killed.

Haemonchus contortus = Haemonchus contortus test (HAEMCO); assay type: in vivo; settings: 20 ppm, larvae of the red stomach worm, after 5 days
Experimental: Haemonchus contortus—test (HAEMCO)
as §1, §2
Vessels containing the active compound preparation of the desired concentration are populated with about 40 larvae of the red stomach worm (Haemonchus contortus).
as §3

[1] = Determination of log P values by HPLC on reversed-phase column (C18); assay type: physicochemical
Experimental: Unless indicated otherwise, the following method was used to determine the log P values and masses: The determination of the given log P values was carried out in accordance with EEC Directive 79/831 Annex V.A8 by HPLC (High Performance Liquid Chromatography) on a reversed-phase column (C18). […] Mass detection is effected by means of an Agilend MSD system.

Phaedon cochleariae = Phaedon cochleariae spray test (PHAECO); assay type: in vivo; settings: 500 g/ha, Chinese cabbage leaf discs, after 7 days
Experimental: Phaedon cochleariae—spray test (PHAECO) • Solvent: 78.0 parts by weight of acetone 1.5 parts by weight of dimethylformamide • Emulsifier: alkylaryl polyglycol ether
(§4) To produce a suitable preparation of active compound, 1 part by weight of active compound is dissolved using the stated parts by weight of solvent and made up with water containing an emulsifier concentration of 1000 ppm until the desired concentration is attained. To produce further test concentrations, the preparation is diluted with emulsifier-containing water.
After 7 days, the efficacy in % is determined. 100% means that all the beetle larvae have been killed; 0% means that no beetle larvae have been killed.

Meloidogyne incognita = Meloidogyne incognita test (MELGIN); assay type: in vivo; settings: 20 ppm, lettuce, after 14 days
Experimental: Meloidogyne incognita test (MELGIN)
Solvent: 125.0 parts by weight of acetone
To produce a suitable active compound formulation, 1 part by weight of active compound is mixed with the stated amount of solvent and the concentrate is diluted with water to the desired concentration.
Vessels are filled with sand, active compound solution, an egg/larvae suspension of the southern root-knot nematode (Meloidogyne incognita) and lettuce seeds. The lettuce seeds germinate and the plants develop. The galls develop on the roots.
After 14 days, the nematicidal efficacy in % is determined by the formation of galls. 100% means that no galls were found; 0% means that the number of galls on the treated plants corresponds to the untreated control.

Tetranychus urticae = Tetranychus urticae spray test, OP-resistant (TETRUR); assay type: in vivo; settings: 500 g/ha, bean leaf discs, after 6 days
Experimental: Tetranychus urticae—spray test, OP-resistant (TETRUR) • Solvent: 78.0 parts by weight of acetone 1.5 parts by weight of dimethylformamide • Emulsifier: alkylaryl polyglycol ether
as §4
Discs of bean leaves (Phaseolus vulgaris) infested by all stages of the greenhouse red spider mite (Tetranychus urticae) are sprayed with an active compound formulation of the desired concentration.
After 6 days, the efficacy in % is determined. 100% means that all the spider mites have been killed; 0% means that no spider mites have been killed.

Boophilus microplus = Boophilus microplus injection test (BOOPMI inj); assay type: in vivo; settings: 20 μg/animal, injection into engorged adult female cattle ticks, assessed after 7 days
Experimental: Boophilus microplus—injection test (BOOPMI inj)
as §1
To produce a suitable preparation of active compound, 10 mg of active compound are mixed with 0.5 ml of solvent and the concentrate is diluted with solvent to the desired concentration.
1 μl of the active compound solution is injected into the abdomen of 5 engorged adult female cattle ticks (Boophilus microplus). The animals are transferred into dishes and kept in a climate-controlled room.
Efficacy is assessed after 7 days by laying of fertile eggs. Eggs which are not visibly fertile are stored in a climate-controlled cabinet until the larvae hatch after about 42 days. An efficacy of 100% means that none of the ticks has laid any fertile eggs; 0% means that all the eggs are fertile.

[2] = formic acid method, read-out: log P(HCOOH)
[3] = neutral, read-out: log P(neutral)

With O=C(Nc1cnn(-c2c(F)cccc2F)c1)c1ccccc1Br [I-1-40] the “efficacy (kill in %)” value (Cooperia curticei) was 80% and the “efficacy (kill in %)” value (Haemonchus contortus) was 90%.
Molecule CCOC(=O)c1cnn(-c2c(F)cccc2F)c1C(F)(F)F [Ethyl 1-(2,6-difluorophenyl)-5-(trifluoromethyl)-1H-pyrazole-4-carboxylate] has a chromatographic logP [1, 2] of 3.56 and a chromatographic logP [1, 3] of 3.52.
With O=C(Nc1cnn(-c2ccccc2F)c1)c1ccccc1I [I-1-7] the “efficacy (beetle larvae killed)” value (Phaedon cochleariae) was 83%, the “nematicidal efficacy (formation of galls)” value (“nematicidal efficacy” below) (Meloidogyne incognita) was 90% and the “efficacy (kill in %)” value (Cooperia curticei) was 90%. The “efficacy (kill in %)” value (Haemonchus contortus) was 90%.
For O=C(Nc1cnn(-c2c(F)cccc2F)c1)c1ccccc1C(F)(F)F [I-1-9, N-[1-(2,6-Difluorophenyl)-1H-pyrazol-4-yl]-2-(trifluoromethyl)benzamide], the “nematicidal efficacy” value (Meloidogyne incognita) was 100%, the “efficacy (kill in %)” value (Cooperia curticei) was 100% and the “efficacy (kill in %)” value (Haemonchus contortus) was 100%. The chromatographic logP [1, 2] was 2.45 and the chromatographic logP [1, 3] was 2.36.
For O=C(Nc1cnn(-c2ncccc2F)c1)c1ccccc1Br [I-1-16], the “nematicidal efficacy” value (Meloidogyne incognita) was 90%.
With Nc1cnn(-c2c(F)cc(F)cc2F)c1C(F)(F)F [5-(Trifluoromethyl)-1-(2,4,6-trifluorophenyl)-1H-pyrazole-4-amine] the chromatographic logP [1, 2] was 2.35 and the chromatographic logP [1, 3] was 2.35.
NNc1c(F)cc(Cl)cc1F [(4-chloro-2,6-difluorophenyl)hydrazine] gave a chromatographic logP [1, 2] of 0.15 and a chromatographic logP [1, 3] of 1.44.
With N#Cc1cccc(C#N)c1-n1cc(NC(=O)c2ccccc2C(F)(F)F)cn1 [I-1-68] the “nematicidal efficacy” value (Meloidogyne incognita) was 100%.
Nc1cnn(-c2c(F)cccc2F)c1 [1-(2,6-Difluorophenyl)-1H-pyrazole-4-amine] showed a chromatographic logP [1, 2] of 0.09 and a chromatographic logP [1, 3] of 0.89.
For O=C(Nc1cnn(-c2c(F)cccc2F)c1)c1ccccc1Cl [I-1-41], the “efficacy (beetle larvae killed)” value (Phaedon cochleariae) was 100%.
For O=C(Nc1cnn(-c2ncccc2Br)c1)c1c(F)cccc1F [I-1-31], the “efficacy (beetle larvae killed)” value (Phaedon cochleariae) was 100%.
Nc1cnn(-c2c(F)cccc2F)c1C(F)(F)F [1-(2,6-Difluorophenyl)-5-(trifluoromethyl)-1H-pyrazole-4-amine] showed a chromatographic logP [1, 2] of 2.14 and a chromatographic logP [1, 3] of 2.13.
In the case of Nc1cnn(-c2c(F)cc(Cl)cc2F)c1Cl [5-Chloro-1-(4-chloro-2,6-difluorophenyl)-1H-pyrazole-4-amine], the chromatographic logP [1, 2] is reported as 2.08 and the chromatographic logP [1, 3] is reported as 2.14.
For O=C(Nc1cnn(-c2ncccc2Cl)c1)c1ccccc1Cl [I-1-23], the “efficacy (beetle larvae killed)” value (Phaedon cochleariae) was 100%, the “nematicidal efficacy” value (Meloidogyne incognita) was 90% and the “efficacy (kill in %)” value (Haemonchus contortus) was 90%.
For O=C(Nc1cnn(-c2ncccc2F)c1)c1c(F)cccc1C(F)(F)F [I-1-18], the “efficacy (kill in %)” value (Haemonchus contortus) was 80%.
With O=C(Nc1cnn(-c2ncccc2Br)c1)c1ccccc1C(F)(F)F [I-1-29] the “efficacy (kill in %)” value (Cooperia curticei) was 80%.
With O=C(Nc1cnn(-c2c(F)cccc2Cl)c1)c1ccccc1C(F)(F)F [I-1-60] the “nematicidal efficacy” value (Meloidogyne incognita) was 90%.
Fc1cc(Cl)cc(F)c1-n1cccn1 [1-(4-chloro-2,6-difluorophenyl)pyrazole] gave a chromatographic logP [1, 2] of 2.36 and a chromatographic logP [1, 3] of 2.34.
In the case of O=C(Nc1cnn(-c2ncccc2Cl)c1)c1ccccc1C(F)(F)F [I-1-24], the “efficacy (kill in %)” value (Cooperia curticei) is reported as 90% and the “efficacy (kill in %)” value (Haemonchus contortus) is reported as 100%.
In the case of O=C(Nc1cnn(-c2c(F)cc(Cl)cc2F)c1Cl)c1ccccc1I [I-1-44], the “efficacy (spider mites killed)” value (Tetranychus urticae) is reported as 95%.
In the case of O=C(Nc1cn[nH]c1)c1ccccc1C(F)(F)F [N-(1H-Pyrazol-4-yl)-2-(trifluoromethyl)benzamide], the chromatographic logP [1, 2] is reported as 1.21 and the chromatographic logP [1, 3] is reported as 1.22.
With O=C(Nc1cnn(-c2ccccc2F)c1)c1ccccc1C(F)(F)F [I-1-8] the “nematicidal efficacy” value (Meloidogyne incognita) was 90%, the “efficacy (kill in %)” value (Cooperia curticei) was 100% and the “efficacy (kill in %)” value (Haemonchus contortus) was 100%.
In the case of CC(C)(C)OC(=O)Nc1cnn(-c2c(F)cccc2F)c1C(F)(F)F [tert-Butyl [1-(2,6-difluorophenyl)-5-(trifluoromethyl)-1H-pyrazol-4-yl]carbamate], the chromatographic logP [1, 2] is reported as 3.61 and the chromatographic logP [1, 3] is reported as 3.58.
With O=C(Nc1cnn(-c2ncccc2Cl)c1)c1ccccc1I [I-1-22] the “efficacy (kill in %)” value (Haemonchus contortus) was 100%.
O=[N+]([O-])c1cnn(-c2c(F)cc(Cl)cc2F)c1 [1-(4-Chloro-2,6-difluorophenyl)-4-nitro-1H-pyrazole] showed a chromatographic logP [1, 2] of 2.74 and a chromatographic logP [1, 3] of 2.72.
In the case of O=C(Nc1cnn(-c2c(F)cccc2F)c1)c1cccnc1C(F)(F)F [I-1-58], the “efficacy (kill in %)” value (Haemonchus contortus) is reported as 80%.
With O=C(Nc1cnn(-c2ncccc2Cl)c1)c1c(F)cccc1C(F)(F)F [I-1-25] the “efficacy (kill in %)” value (Cooperia curticei) was 90% and the “efficacy (kill in %)” value (Haemonchus contortus) was 100%.
With O=C(Nc1cnn(-c2ncccc2Cl)c1)c1ccccc1Br [I-1-26] the “efficacy (kill in %)” value (Haemonchus contortus) was 100%.
In the case of O=C(Nc1cnn(-c2cc(F)cnc2F)c1)c1ccccc1I [I-1-33], the “efficacy (kill in %)” value (Cooperia curticei) is reported as 80%.
With O=C(Nc1cnn(-c2c(F)cccc2C(F)(F)F)c1)c1ccccc1C(F)(F)F [I-1-53] the “efficacy (kill in %)” value (Cooperia curticei) was 100%.
Molecule N#Cc1cccc(F)c1-n1cc(NC(=O)c2ccccc2C(F)(F)F)cn1 [I-1-52, N-[1-(2-Cyano-6-fluorophenyl)-1H-pyrazol-4-yl]-2-(trifluoromethyl)benzamide] has a chromatographic logP [1, 2] of 2.37 and a chromatographic logP [1, 3] of 2.33.
For O=C(Nc1cnn(-c2ncccc2F)c1)c1ccccc1Cl [I-1-17], the “nematicidal efficacy” value (Meloidogyne incognita) was 100%.
With O=C(Nc1cnn(-c2cnc(F)c(F)c2)c1)c1c(F)cccc1C(F)(F)F [I-1-36] the “efficacy (kill in %)” value (Cooperia curticei) was 100%.
With O=C(Nc1cnn(-c2c(F)cccc2F)c1)c1c(F)cccc1C(F)(F)F [I-1-42] the “efficacy (kill in %)” value (Cooperia curticei) was 80% and the “efficacy (kill in %)” value (Haemonchus contortus) was 100%.
For O=C(Nc1cnn(-c2ncccc2Br)c1)c1ccccc1Cl [I-1-30], the “efficacy (beetle larvae killed)” value (Phaedon cochleariae) was 83%.
In the case of O=C(Nc1cnn(-c2ncccc2F)c1)c1ccccc1C(F)(F)F [I-1-10], the “efficacy (laying of fertile eggs)” value (Boophilus microplus) is reported as 100%, the “nematicidal efficacy” value (Meloidogyne incognita) is reported as 90% and the “efficacy (kill in %)” value (Haemonchus contortus) is reported as 90%.
With O=C(O)c1cnn(-c2c(F)cccc2F)c1C(F)(F)F [1-(2,6-Difluorophenyl)-5-(trifluoromethyl)-1H-pyrazole-4-carboxylic acid] the chromatographic logP [1, 2] was 2.1 and the chromatographic logP [1, 3] was 0.13.
